Tests used:
Experiment in all cases: radiometric filter-binding kinase assay
MELK (human) = MELK (human) (UniProt Q14680)
FLT1 (human) = FLT1 (human) (UniProt P17948)
ROCK2 (rat) = details: accession and sequence are those of the human protein
DAPK1 (human) = DAPK1 (human) (UniProt P53355)
EPHA2 (human) = EPHA2 (human) (UniProt P29317)
TAOK1 (human) = TAOK1 (human) (UniProt Q7L7X3)
EPHB4 (human) = EPHB4 (human) (UniProt P54760)
MAPK12 (human) = MAPK12 (human) (UniProt P53778)
[1] = tested on: SGK1 (human), O00141 [S422D]
MARK2 (human) = MARK2 (human) (UniProt Q7KZI7)
MAP3K7 TAB1 (human) = MAP3K7 TAB1 (human) (UniProt Q15750+O43318)
PIM3 (human) = PIM3 (human) (UniProt Q86V86)
IKBKE (human) = IKBKE (human) (UniProt Q14164)
MYLK (human) = MYLK (human) (UniProt Q15746)
STK3 (human) = STK3 (human) (UniProt Q13188)
NEK2 (human) = NEK2 (human) (UniProt P51955)
IRAK4 (human) = IRAK4 (human) (UniProt Q9NWZ3)
IRAK4 (human), sequence (Q9NWZ3 whole entry, looked up): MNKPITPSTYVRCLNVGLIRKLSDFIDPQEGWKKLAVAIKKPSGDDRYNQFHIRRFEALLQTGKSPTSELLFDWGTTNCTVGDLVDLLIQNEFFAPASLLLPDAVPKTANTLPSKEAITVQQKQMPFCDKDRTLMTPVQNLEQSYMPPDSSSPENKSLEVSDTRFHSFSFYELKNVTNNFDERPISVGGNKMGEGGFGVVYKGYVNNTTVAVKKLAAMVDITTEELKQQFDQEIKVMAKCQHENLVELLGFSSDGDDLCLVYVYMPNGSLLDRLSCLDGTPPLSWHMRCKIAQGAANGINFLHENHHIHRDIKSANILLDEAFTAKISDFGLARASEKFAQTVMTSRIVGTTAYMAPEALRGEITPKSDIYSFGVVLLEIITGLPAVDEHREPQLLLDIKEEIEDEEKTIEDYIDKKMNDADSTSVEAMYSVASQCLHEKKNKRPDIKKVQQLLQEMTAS

EPHB1 (human) = EPHB1 (human) (UniProt P54762)
CHEK2 (human) = CHEK2 (human) (UniProt O96017)
EPHB2 (human) = EPHB2 (human) (UniProt P29323)
MAPKAPK5 (human) = MAPKAPK5 (human) (UniProt Q8IW41)
DYRK3 (human) = DYRK3 (human) (UniProt O43781)
MAPKAPK2 (human) = MAPKAPK2 (human) (UniProt P49137)
GCK (human) = GCK (human) (UniProt Q12851)
DYRK2 (human) = DYRK2 (human) (UniProt Q92630)
DYRK2 (human), sequence (Q92630 whole entry, looked up): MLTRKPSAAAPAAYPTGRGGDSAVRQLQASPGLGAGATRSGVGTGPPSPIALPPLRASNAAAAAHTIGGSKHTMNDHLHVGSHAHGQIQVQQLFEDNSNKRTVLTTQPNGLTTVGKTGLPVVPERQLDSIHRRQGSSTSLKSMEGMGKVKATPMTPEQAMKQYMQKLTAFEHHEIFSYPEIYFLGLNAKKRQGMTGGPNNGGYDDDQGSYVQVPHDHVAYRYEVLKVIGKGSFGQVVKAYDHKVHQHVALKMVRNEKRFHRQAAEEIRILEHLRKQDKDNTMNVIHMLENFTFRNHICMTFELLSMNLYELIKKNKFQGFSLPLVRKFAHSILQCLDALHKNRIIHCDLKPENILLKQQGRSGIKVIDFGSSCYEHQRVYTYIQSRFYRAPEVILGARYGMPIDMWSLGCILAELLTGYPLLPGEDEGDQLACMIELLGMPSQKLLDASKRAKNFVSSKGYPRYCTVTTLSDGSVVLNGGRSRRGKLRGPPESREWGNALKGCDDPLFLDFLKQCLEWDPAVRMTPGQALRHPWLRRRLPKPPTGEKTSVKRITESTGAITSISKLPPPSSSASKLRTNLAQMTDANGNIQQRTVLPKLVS

PRKCA (human) = PRKCA (human) (UniProt P17252)
CLK2 (human) = CLK2 (human) (UniProt P49760)
[2] = tested on: RPS6KB1 (human), P23443 [T412E]
PKN2 (human) = PKN2 (human) (UniProt Q16513)
MARK1 (human) = MARK1 (human) (UniProt Q9P0L2)
MAPK14 (human) = MAPK14 (human) (UniProt Q16539)
MAPK14 (human), sequence (Q16539 whole entry, looked up): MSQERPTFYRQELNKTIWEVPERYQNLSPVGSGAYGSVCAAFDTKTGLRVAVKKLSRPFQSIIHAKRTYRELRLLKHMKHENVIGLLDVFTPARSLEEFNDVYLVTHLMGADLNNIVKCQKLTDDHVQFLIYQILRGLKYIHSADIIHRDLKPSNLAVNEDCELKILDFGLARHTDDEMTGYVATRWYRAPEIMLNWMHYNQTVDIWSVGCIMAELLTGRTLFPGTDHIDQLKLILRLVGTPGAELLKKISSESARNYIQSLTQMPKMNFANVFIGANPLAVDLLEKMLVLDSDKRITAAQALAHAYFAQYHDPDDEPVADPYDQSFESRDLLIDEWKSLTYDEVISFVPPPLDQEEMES

PIM1 (human) = PIM1 (human) (UniProt P11309)
TTK (human) = TTK (human) (UniProt P33981)
TTK (human), sequence (P33981 whole entry, looked up): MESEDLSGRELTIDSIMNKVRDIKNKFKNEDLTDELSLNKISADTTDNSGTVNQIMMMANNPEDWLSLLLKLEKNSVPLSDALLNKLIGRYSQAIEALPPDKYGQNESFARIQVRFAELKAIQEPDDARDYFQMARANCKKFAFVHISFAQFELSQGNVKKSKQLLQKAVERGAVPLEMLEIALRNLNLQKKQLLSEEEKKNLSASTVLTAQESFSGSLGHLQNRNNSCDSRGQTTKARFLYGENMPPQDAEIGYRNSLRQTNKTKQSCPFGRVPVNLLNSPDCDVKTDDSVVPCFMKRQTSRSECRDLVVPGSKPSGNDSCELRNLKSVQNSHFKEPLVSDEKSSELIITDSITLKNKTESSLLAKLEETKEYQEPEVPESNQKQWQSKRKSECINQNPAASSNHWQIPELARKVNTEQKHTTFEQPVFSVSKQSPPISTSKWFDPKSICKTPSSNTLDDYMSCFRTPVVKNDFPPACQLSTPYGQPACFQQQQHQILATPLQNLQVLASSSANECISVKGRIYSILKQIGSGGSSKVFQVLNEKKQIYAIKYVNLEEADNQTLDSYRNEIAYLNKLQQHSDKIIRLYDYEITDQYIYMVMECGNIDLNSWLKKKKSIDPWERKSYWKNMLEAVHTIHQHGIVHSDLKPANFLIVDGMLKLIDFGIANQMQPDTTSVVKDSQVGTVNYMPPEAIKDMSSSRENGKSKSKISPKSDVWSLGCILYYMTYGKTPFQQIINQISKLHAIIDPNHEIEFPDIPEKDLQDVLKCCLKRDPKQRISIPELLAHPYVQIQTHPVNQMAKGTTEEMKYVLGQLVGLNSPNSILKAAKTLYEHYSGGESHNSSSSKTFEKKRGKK

RPS6KA1 KD1 KD2 (human) = RPS6KA1 KD1 KD2 (human) (UniProt Q15418)
RPS6KA1 KD1 KD2 (human), sequence (Q15418 whole entry, looked up): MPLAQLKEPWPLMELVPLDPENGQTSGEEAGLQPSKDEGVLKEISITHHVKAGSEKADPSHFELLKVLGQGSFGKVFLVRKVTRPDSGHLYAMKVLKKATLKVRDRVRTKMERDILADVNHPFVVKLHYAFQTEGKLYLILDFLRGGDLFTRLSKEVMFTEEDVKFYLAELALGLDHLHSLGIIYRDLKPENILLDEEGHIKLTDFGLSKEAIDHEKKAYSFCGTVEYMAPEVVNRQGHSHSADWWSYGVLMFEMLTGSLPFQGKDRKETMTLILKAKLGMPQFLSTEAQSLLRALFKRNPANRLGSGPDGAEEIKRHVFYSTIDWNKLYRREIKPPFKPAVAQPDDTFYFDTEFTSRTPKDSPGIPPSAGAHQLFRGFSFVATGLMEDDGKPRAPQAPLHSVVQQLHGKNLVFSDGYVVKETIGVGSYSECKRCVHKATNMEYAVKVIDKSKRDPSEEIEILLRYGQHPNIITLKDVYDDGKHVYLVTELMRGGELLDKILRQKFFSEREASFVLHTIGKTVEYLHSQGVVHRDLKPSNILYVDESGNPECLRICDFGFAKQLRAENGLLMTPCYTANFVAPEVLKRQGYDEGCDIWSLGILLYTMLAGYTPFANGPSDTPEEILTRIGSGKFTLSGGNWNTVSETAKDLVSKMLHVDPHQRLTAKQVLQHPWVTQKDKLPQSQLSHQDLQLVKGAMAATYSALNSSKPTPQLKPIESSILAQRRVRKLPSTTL

FLT1 (human), sequence (P17948 whole entry, looked up): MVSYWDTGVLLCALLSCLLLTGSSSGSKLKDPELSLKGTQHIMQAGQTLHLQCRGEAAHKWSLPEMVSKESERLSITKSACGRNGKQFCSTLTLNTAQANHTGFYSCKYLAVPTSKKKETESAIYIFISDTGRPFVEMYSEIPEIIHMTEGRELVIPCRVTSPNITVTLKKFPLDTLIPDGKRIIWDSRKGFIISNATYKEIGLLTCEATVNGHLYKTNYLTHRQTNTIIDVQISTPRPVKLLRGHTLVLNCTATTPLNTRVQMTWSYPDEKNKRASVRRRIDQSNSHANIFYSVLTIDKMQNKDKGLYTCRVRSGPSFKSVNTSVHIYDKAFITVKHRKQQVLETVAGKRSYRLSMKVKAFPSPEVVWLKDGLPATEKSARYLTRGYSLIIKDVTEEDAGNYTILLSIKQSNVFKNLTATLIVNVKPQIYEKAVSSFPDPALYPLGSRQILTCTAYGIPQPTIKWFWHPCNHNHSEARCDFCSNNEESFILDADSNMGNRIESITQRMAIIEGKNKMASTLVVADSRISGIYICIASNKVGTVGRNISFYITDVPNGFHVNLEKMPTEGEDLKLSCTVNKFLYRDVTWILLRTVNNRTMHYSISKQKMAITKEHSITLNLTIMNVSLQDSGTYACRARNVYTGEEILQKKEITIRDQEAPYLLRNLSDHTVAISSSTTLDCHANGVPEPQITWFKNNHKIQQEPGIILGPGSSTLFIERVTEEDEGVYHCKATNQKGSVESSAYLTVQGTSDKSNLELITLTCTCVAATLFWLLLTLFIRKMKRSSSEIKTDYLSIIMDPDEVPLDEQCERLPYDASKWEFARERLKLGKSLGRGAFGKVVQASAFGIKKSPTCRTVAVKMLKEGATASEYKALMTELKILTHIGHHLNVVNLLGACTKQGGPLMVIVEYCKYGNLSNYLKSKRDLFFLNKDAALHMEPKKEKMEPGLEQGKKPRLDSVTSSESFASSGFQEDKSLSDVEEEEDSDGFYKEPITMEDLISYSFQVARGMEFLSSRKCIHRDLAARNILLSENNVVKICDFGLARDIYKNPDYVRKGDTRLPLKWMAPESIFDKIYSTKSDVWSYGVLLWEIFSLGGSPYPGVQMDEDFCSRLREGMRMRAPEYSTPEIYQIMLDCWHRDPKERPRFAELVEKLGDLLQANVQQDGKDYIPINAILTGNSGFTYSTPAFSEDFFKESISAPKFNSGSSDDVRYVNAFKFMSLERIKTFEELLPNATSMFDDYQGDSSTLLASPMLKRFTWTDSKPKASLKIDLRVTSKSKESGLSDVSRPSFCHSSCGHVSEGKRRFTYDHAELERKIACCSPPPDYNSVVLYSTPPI
MELK (human), sequence (Q14680 whole entry, looked up): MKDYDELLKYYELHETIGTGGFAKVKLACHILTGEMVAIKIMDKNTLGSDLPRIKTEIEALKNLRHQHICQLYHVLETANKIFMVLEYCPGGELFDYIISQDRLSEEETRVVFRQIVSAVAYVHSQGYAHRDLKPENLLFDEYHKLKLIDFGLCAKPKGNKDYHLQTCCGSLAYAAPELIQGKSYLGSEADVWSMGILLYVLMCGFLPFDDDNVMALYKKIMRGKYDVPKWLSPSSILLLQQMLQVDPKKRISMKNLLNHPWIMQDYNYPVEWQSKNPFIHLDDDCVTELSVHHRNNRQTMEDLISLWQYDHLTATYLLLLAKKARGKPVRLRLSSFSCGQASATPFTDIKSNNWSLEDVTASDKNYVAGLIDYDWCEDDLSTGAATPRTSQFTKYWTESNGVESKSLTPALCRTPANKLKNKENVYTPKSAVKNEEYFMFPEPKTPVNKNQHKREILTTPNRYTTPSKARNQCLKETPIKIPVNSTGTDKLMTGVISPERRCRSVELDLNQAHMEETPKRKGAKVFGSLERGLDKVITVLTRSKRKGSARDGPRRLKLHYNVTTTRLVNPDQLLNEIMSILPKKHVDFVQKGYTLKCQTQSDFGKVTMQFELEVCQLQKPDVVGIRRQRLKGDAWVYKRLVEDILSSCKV

- residual activity (MELK (human); compound 0.01 µM): 105%
- residual activity (MELK (human); compound 0.1 µM): 93%
- residual activity (MELK (human); compound 1.0 µM): 71%
- residual activity (FLT1 (human); compound 0.01 µM): 95%
- residual activity (FLT1 (human); compound 0.1 µM): 64%
- residual activity (FLT1 (human); compound 1.0 µM): 15%
- residual activity (ROCK2 (rat); compound 0.01 µM): 90%
- residual activity (ROCK2 (rat); compound 1.0 µM): 68%
- residual activity (DAPK1 (human); compound 0.1 µM): 88%
- residual activity (DAPK1 (human); compound 1.0 µM): 96%
- residual activity (EPHA2 (human); compound 0.01 µM): 51%
- residual activity (EPHA2 (human); compound 0.1 µM): 15%
- residual activity (EPHA2 (human); compound 1.0 µM): 6%
- residual activity (TAOK1 (human); compound 0.01 µM): 85%
- residual activity (TAOK1 (human); compound 0.1 µM): 69%
- residual activity (TAOK1 (human); compound 1.0 µM): 33%
- residual activity (EPHB4 (human); compound 0.01 µM): 110%
- residual activity (EPHB4 (human); compound 0.1 µM): 80%
- residual activity (EPHB4 (human); compound 1.0 µM): 5%
- residual activity (MAPK12 (human); compound 0.01 µM): 110%
- residual activity (MAPK12 (human); compound 0.1 µM): 112%
- residual activity (MAPK12 (human); compound 1.0 µM): 105%
- residual activity ([1]; compound 0.01 µM): 94%
- residual activity ([1]; compound 1.0 µM): 93%
- residual activity (MARK2 (human); compound 0.01 µM): 101%
- residual activity (MARK2 (human); compound 0.1 µM): 90%
- residual activity (MARK2 (human); compound 1.0 µM): 63%
- residual activity (MAP3K7 TAB1 (human); compound 0.1 µM): 110%
- residual activity (MAP3K7 TAB1 (human); compound 1.0 µM): 84%
- residual activity (PIM3 (human); compound 0.01 µM): 103%
- residual activity (PIM3 (human); compound 0.1 µM): 110%
- residual activity (PIM3 (human); compound 1.0 µM): 103%
- residual activity (IKBKE (human); compound 0.1 µM): 94%
- residual activity (IKBKE (human); compound 1.0 µM): 102%
- residual activity (MYLK (human); compound 0.01 µM): 99%
- residual activity (MYLK (human); compound 0.1 µM): 89%
- residual activity (MYLK (human); compound 1.0 µM): 91%
- residual activity (STK3 (human); compound 0.01 µM): 112%
- residual activity (STK3 (human); compound 0.1 µM): 109%
- residual activity (STK3 (human); compound 1.0 µM): 118%
- residual activity (NEK2 (human); compound 0.01 µM): 112%
- residual activity (NEK2 (human); compound 0.1 µM): 93%
- residual activity (NEK2 (human); compound 1.0 µM): 95%
- residual activity (IRAK4 (human); compound 0.01 µM): 90%
- residual activity (IRAK4 (human); compound 0.1 µM): 97%
- residual activity (IRAK4 (human); compound 1.0 µM): 90%
- residual activity (EPHB1 (human); compound 0.01 µM): 62%
- residual activity (EPHB1 (human); compound 0.1 µM): 49%
- residual activity (EPHB1 (human); compound 1.0 µM): 2%
- residual activity (CHEK2 (human); compound 0.01 µM): 89%
- residual activity (CHEK2 (human); compound 0.1 µM): 75%
- residual activity (CHEK2 (human); compound 1.0 µM): 34%
- residual activity (EPHB2 (human); compound 0.01 µM): 109%
- residual activity (EPHB2 (human); compound 0.1 µM): 43%
- residual activity (EPHB2 (human); compound 1.0 µM): 1%
- residual activity (MAPKAPK5 (human); compound 0.01 µM): 119%
- residual activity (MAPKAPK5 (human); compound 0.1 µM): 115%
- residual activity (MAPKAPK5 (human); compound 1.0 µM): 125%
- residual activity (DYRK3 (human); compound 0.01 µM): 92%
- residual activity (DYRK3 (human); compound 0.1 µM): 92%
- residual activity (DYRK3 (human); compound 1.0 µM): 97%
- residual activity (MAPKAPK2 (human); compound 0.01 µM): 101%
- residual activity (MAPKAPK2 (human); compound 0.1 µM): 100%
- residual activity (MAPKAPK2 (human); compound 1.0 µM): 97%
- residual activity (GCK (human); compound 0.01 µM): 103%
- residual activity (GCK (human); compound 0.1 µM): 72%
- residual activity (GCK (human); compound 1.0 µM): 21%
- residual activity (DYRK2 (human); compound 0.01 µM): 89%
- residual activity (DYRK2 (human); compound 0.1 µM): 85%
- residual activity (DYRK2 (human); compound 1.0 µM): 93%
- residual activity (PRKCA (human); compound 0.01 µM): 102%
- residual activity (PRKCA (human); compound 0.1 µM): 102%
- residual activity (PRKCA (human); compound 1.0 µM): 104%
- residual activity (CLK2 (human); compound 0.01 µM): 97%
- residual activity (CLK2 (human); compound 0.1 µM): 100%
- residual activity (CLK2 (human); compound 1.0 µM): 108%
- residual activity ([2]; compound 0.01 µM): 88%
- residual activity ([2]; compound 0.1 µM): 99%
- residual activity ([2]; compound 1.0 µM): 93%
- residual activity (PKN2 (human); compound 0.1 µM): 99%
- residual activity (PKN2 (human); compound 1.0 µM): 90%
- residual activity (MARK1 (human); compound 0.01 µM): 88%
- residual activity (MARK1 (human); compound 0.1 µM): 87%
- residual activity (MARK1 (human); compound 1.0 µM): 53%
- residual activity (MAPK14 (human); compound 0.01 µM): 121%
- residual activity (MAPK14 (human); compound 0.1 µM): 79%
- residual activity (MAPK14 (human); compound 1.0 µM): 26%
- residual activity (PIM1 (human); compound 0.01 µM): 107%
- residual activity (PIM1 (human); compound 0.1 µM): 113%
- residual activity (PIM1 (human); compound 1.0 µM): 111%
- residual activity (TTK (human); compound 0.01 µM): 100%
- residual activity (TTK (human); compound 0.1 µM): 92%
- residual activity (TTK (human); compound 1.0 µM): 75%
- residual activity (RPS6KA1 KD1 KD2 (human); compound 0.01 µM): 106%
- residual activity (RPS6KA1 KD1 KD2 (human); compound 0.1 µM): 91%
- residual activity (RPS6KA1 KD1 KD2 (human); compound 1.0 µM): 38%
Structure (SMILES): COc1ccc(N(C(=O)Nc2c(C)cccc2C)c2cc(Nc3ccc(N4CCN(C)CC4)cc3)ncn2)c(OC)c1
